The record followed here is publication PMC11365854, “Molecular basis of hyper-thermostability in the thermophilic archaeal aldolase MfnB” (Extremophiles, 2024).

In series [1] the target is T1, MfnB_MJ (Methanocaldococcus jannaschii, UniProt Q58499).
T1 construct: gene mfnB; full length (235 residues), N-terminal hexa-histidine tag (pOPINF), no tag cleavage described; codon-optimised synthetic gene, expressed in E. coli BL21 (DE3); homohexamer in published crystal structure
Nature of the series: spectrophotometric, 4-HFC-P formation at […] nm; fit with substrate inhibition term. It is filed as biochemical. Conditions: 75 °C (optimum), pH 7.5, 20 mM Tris–HCl, 150 mM NaCl; two substrate molecules condensed; substrate inhibition constant.

The target of series [2] is T2, MfnB_MM (Methanococcus maripaludis, UniProt Q6LZC1).
T2 construct: gene mfnB; full length, N-terminal hexa-histidine tag (pOPINF), no tag cleavage described; codon-optimised synthetic gene, expressed in E. coli BL21 (DE3)
T2 sequence (Q6LZC1 whole entry): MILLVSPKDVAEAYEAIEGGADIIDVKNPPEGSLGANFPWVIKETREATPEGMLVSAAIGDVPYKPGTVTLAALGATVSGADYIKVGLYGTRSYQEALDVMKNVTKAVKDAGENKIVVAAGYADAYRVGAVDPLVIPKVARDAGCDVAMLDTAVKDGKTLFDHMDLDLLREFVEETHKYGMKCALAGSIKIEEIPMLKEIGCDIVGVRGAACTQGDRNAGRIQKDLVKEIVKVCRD
Described as above. The following applies: 45 °C (optimum), pH 7.5, 20 mM Tris–HCl, 150 mM NaCl; two substrate molecules condensed; substrate inhibition constant. The format is biochemical.

Series [3] concerns the target T2, MfnB_MM. Described as above. It is filed as biochemical. Conditions: 45 °C (optimum), pH 7.5, 20 mM Tris–HCl, 150 mM NaCl; two substrate molecules condensed.
Substrate in series [4]: O=C[C@H](O)COP(=O)(O)O
In words: purified protein. It is filed as biochemical, Methanocaldococcus jannaschii. The following applies: 75 °C (optimum), pH 7.5, 20 mM Tris–HCl, 150 mM NaCl, two substrate molecules condensed.

What is called Km is the substrate concentration at which the rate is half of its maximum. In the case of `O=C[C@H](O)COP(=O)(O)O` [D-GA-3-P], the “Ki” value in series [1] was 565.3 ± 79.7 µM; in series [2], 1532.0 ± 160.4 µM. In addition, the Michaelis-Menten constant (Km) in series [3] is 6.9 ± 0.6 µM.

B1: MfnB_MJ (Methanocaldococcus jannaschii DSM 2661) (protein)
chain: MILLVSPIDVEEAKEAIAGGADIIDVKNPKEGSLGANFPWMIKAIREVTPKDLLVSATVGDVPYKPGTISLAAVGAAISGADYIKVGLYGVKNYYQAVELMKNVVRAVKDIDENKIVVAAGYADAYRVGAVEPLIVPKIARDAGCDVAMLDTAIKDGKTLFDFQSKEILAEFVDEAHSYGLKCALAGSIKKEHIPILKEIGTDIVGVRGAACKGGDRNNGRIDRELVKELKELCK
notes: full length (235 residues), N-terminal hexa-histidine tag (pOPINF), no tag cleavage described; codon-optimised synthetic gene, expressed in E. coli BL21 (DE3); homohexamer in published crystal structure
What is called kcat is the maximal rate divided by the concentration of active sites. Consider B1, for which, in series [4], the Michaelis-Menten constant (Km) was found to be 24.6 ± 3.1 µM and the kcat was found to be 0.142 ± 0.0067 s⁻¹.
